Experimental data taken from patent US20250082633A1, “COMPOUNDS AND METHODS FOR MODULATING SPLICING” (REMIX THERAPEUTICS INC., priority 2021, published 2025).
Structures can show the parent of a compound that is named as a salt. Where two headings read alike, the source gives them in different places.

Tests used:
Format in all cases: cell-based
[1] = test system: HTT mRNA; experiment: RT-qPCR splicing assay, HTT canonical (CJ) and alternative (AJ) junction mRNA; settings: Homo sapiens; for IC50: read-out: HTT CJ IC50; for AC50: read-out: HTT AJ AC50
Method in brief: (§1)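 Splice-junction mRNAs (CJ, AJ) measured by TaqMan one-step RT-qPCR on cell lysates, using PPIA as reference for adherent A673 and GAPDH or GUSB for K562. Cells exposed for 24 h to 11 threefold concentrations up to 10 uM final, with DMSO at or below 0.25%.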

[2] = test system: MYB mRNA; experiment: RT-qPCR splicing assay, MYB canonical (CJ) and alternative (AJ) junction mRNA; settings: Homo sapiens; for IC50: read-out: MYB CJ IC50; for AC50: read-out: MYB AJ AC50
Method in brief: as §1

[3] = test system: SMN2 mRNA; experiment: RT-qPCR splicing assay, gene panel, SMN2 canonical junction (CJ) mRNA; settings: Homo sapiens, read-out: SMN2 CJ IC50
Method in brief: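 A673 (DMEM/10% FBS) or K562 (IMDM/10% FBS) cells were treated 24 h at 37 °C with an 11-point 3-fold dilution series, top final 10 uM, DMSO ≤0.25%. Lysates underwent one-step RT-qPCR for the canonical-junction isoform with GAPDH, GUSB or PPIA as housekeeper. ΔΔCt versus DMSO was converted to RQ (2^−ΔΔCt), then to percent response.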

[4] = decrease in CJ mRNA levels, larger panel of genes, Table 3
[5] = decrease in canonical junction mRNA, A673 or K562 cells, 24 hours treatment, Table 2
[6] = increase in alternative junction mRNA, A673 or K562 cells, 24 hours treatment, Table 2

| SMILES | IC50 [1, 4] [µM] | IC50 [1, 5] [µM] | AC50 [1, 6] [µM] | IC50 [2, 4] [µM] | IC50 [2, 5] [µM] | AC50 [2, 6] [µM] | IC50 [3, 4] [µM] | AC50 ([1]; 24 h) [µM] | IC50 ([1]; 24 h) [µM] | IC50 [1] [µM] | AC50 ([2]; 24 h) [µM] | IC50 ([2]; 24 h) [µM] | IC50 [2] [µM] | IC50 [3] [µM] |
| --- | --- | --- | --- | --- | --- | --- | --- | --- | --- | --- | --- | --- | --- | --- |
| CCN1CCC(n2cc3cc(-c4cc(C)c5nc(C)cn5n4)cc(F)c3n2)CC1 [Compound 146, 6-[2-(1-ethyl-4-piperidyl)-7-fluoro-indazol-5-yl]-2,8-dimethyl-imidazo[1,2-b]pyridazine] | < 0.1 | < 0.1 | < 0.1 | 0.1 to 1 | 0.1 to 1 | 0.1 to 1 | < 0.1 |  |  |  |  |  |  |  |
| Cc1nc2c(C)cc(-c3cc(F)c4nn(C5CCNCC5)cc4c3)cc2o1 [Compound 137, 6-[7-fluoro-2-(4-piperidyl)indazol-5-yl]-2,4-dimethyl-1,3-benzoxazole] | < 0.1 | < 0.1 | < 0.1 | 0.1 to 1 | 0.1 to 1 | 0.1 to 1 | < 0.1 |  |  |  |  |  |  |  |
| Cc1cn2nc(-c3cc(O)c4nn(C5CCNCC5)cc4c3)cc(C)c2n1 [Compound 156, 5-(2,8-dimethylimidazo[1,2-b]pyridazin-6-yl)-2-(piperidin-4-yl)-2H-indazol-7-ol] | 0.1 to 1 | 0.1 to 1 | 0.1 to 1 | 1 to 10 | 1 to 10 | 1 to 10 | 0.1 to 1 |  |  |  |  |  |  |  |
| CCN1CCC(n2cc3cc(-c4cc(C)c5nc(C)cn5n4)cc(F)c3n2)CC12CC2 (stereo not drawn) [Compound 177, 6-[2-(4-ethyl-4-azaspiro[2.5]octan-7-yl)-7-fluoro-indazol-5-yl]-2,8-dimethyl-imidazo[1,2-b]pyridazine] | < 0.1 | < 0.1 | < 0.1 | 0.1 to 1 | 0.1 to 1 | 0.1 to 1 | < 0.1 |  |  |  |  |  |  |  |
| Cc1cn2nc(-c3cc(F)c4nn(C5CCN(C)CC5)cc4c3)cc(C)c2n1 [Compound 150, 6-[7-fluoro-2-(1-methyl-4-piperidyl)indazol-5-yl]-2,8-dimethyl-imidazo[1,2-b]pyridazine] | < 0.1 | < 0.1 | < 0.1 | 0.1 to 1 | 0.1 to 1 | 0.1 to 1 | < 0.1 |  |  |  |  |  |  |  |
| Cc1cn2nc(-c3cc(F)c4nn([C@H]5CCNC[C@@H]5F)cc4c3)cc(C)c2n1 [Compound 167, 6-(7-fluoro-2-((3S,4S)-3-fluoropiperidin-4-yl)-2H-indazol-5-yl)-2,8-dimethylimidazo[1,2-b]pyridazine] | 0.1 to 1 | 0.1 to 1 | 0.1 to 1 | 1 to 10 | 1 to 10 | 1 to 10 | < 0.1 |  |  |  |  |  |  |  |
| Cc1cn2cc(-c3cc(F)c4nn(C5CCNCC5)cc4c3)cc(F)c2n1 [Compound 129, 7-fluoro-5-(8-fluoro-2-methylimidazo[1,2-a]pyridin-6-yl)-2-(piperidin-4-yl)-2H-indazole] | < 0.1 | < 0.1 | < 0.1 | 0.1 to 1 | 0.1 to 1 | 0.1 to 1 | < 0.1 |  |  |  |  |  |  |  |
| Cc1cn2nc(-c3cc4cn(C5CCNCC5)nc4c(OCc4ccccc4)n3)cc(C)c2n1 [Compound 153, 6-[7-benzyloxy-2-(4-piperidyl)pyrazolo [3,4-c]pyridin-5-yl]-2,8-dimethyl-imidazo[1,2-b]pyridazine] | > 10 | > 10 | 1 to 10 | 1 to 10 | 1 to 10 | > 10 | > 10 |  |  |  |  |  |  |  |
| CCN1CCC(n2cc3cc(-c4cc(F)c5nn(C)cc5c4)cc(F)c3n2)CC1 [Compound 104, 2-(1-ethyl-4-piperidyl)-7-fluoro-5-(7-fluoro-2-methyl-indazol-5-yl)indazole] | 0.1 to 1 | 0.1 to 1 | 0.1 to 1 | 1 to 10 | 1 to 10 | 1 to 10 | < 0.1 |  |  |  |  |  |  |  |
| Cc1cn2nc(-c3cc(F)c4nn(C5CCN(CCO)CC5)cc4c3)cc(C)c2n1 [Compound 160, 2-[4-[5-(2,8-dimethylimidazo[1,2-b]pyridazin-6-yl)-7-fluoro-indazol-2-yl]-1-piperidyl]ethanol] |  |  |  |  |  |  |  | < 0.1 | < 0.1 | < 0.1 | 0.1 to 1 | 0.1 to 1 | 0.1 to 1 | < 0.1 |
| Cn1cc2cc(-c3cc(Cl)c4nn(C5CCNCC5)cc4n3)c(O)cc2n1 [Compound 141] | > 10 | > 10 | > 10 | > 10 | > 10 | > 10 | 1 to 10 |  |  |  |  |  |  |  |
| Cc1cn2nc(-c3cc(F)c4nn([C@@H]5CCNC[C@H]5F)cc4c3)cc(C)c2n1 [Compound 168, 6-(7-fluoro-2-((3R,4R)-3-fluoropiperidin-4-yl)-2H-indazol-5-yl)-2,8-dimethylimidazo [1,2-b]pyridazine] | < 0.1 | < 0.1 | 0.1 to 1 | 0.1 to 1 | 0.1 to 1 | 0.1 to 1 | < 0.1 |  |  |  |  |  |  |  |
| Cc1cn2nc(-c3cc(F)c4nn(C5CCNCC5)cc4c3)cc(C)c2n1 [Compound 122, 6-(7-fluoro-2-(piperidin-4-yl)-2H-indazol-5-yl)-2,8-dimethylimidazo [1,2-b]pyridazine hydrochloride salt] |  |  |  |  |  |  |  | < 0.1 | < 0.1 | < 0.1 | < 0.1 | < 0.1 | < 0.1 | < 0.1 |
| Cn1cc2cc(-c3cc(F)c4nn(C5CCNC6(CC6)C5)cc4c3)cc(F)c2n1 (stereo not drawn) [Compound 108, 2-(4-azaspiro[2.5]octan-7-yl)-7-fluoro-5-(7-fluoro-2-methyl-indazol-5-yl)indazole] | 0.1 to 1 | 0.1 to 1 | 0.1 to 1 | 0.1 to 1 | 0.1 to 1 | 1 to 10 | 0.1 to 1 |  |  |  |  |  |  |  |
| Cc1cn2nc(-c3cc(F)c4nn([C@H]5CCNC6(CC6)C5)cc4c3)cc(C)c2n1 [Compound 172] | < 0.1 | < 0.1 | < 0.1 | < 0.1 | < 0.1 | < 0.1 | < 0.1 |  |  |  |  |  |  |  |
| COc1cc(-c2cc3cn(C)nc3cc2O)nc2cn(C3CCNCC3)nc12 [Compound 140, 5-[7-methoxy-2-(4-piperidyl)pyrazolo[4,3-b]pyridin-5-yl]-2-methyl-indazol-6-ol] | 1 to 10 | 1 to 10 | 1 to 10 | 1 to 10 | 1 to 10 | 1 to 10 | 0.1 to 1 |  |  |  |  |  |  |  |
| Cc1c(O)c(-c2cc(F)c3nn(C4CCNCC4)cc3c2)cc2cn(C)nc12 [Compound 126, 5-[7-fluoro-2-(4-piperidyl)indazol-5-yl]-2,7-dimethyl-indazol-6-ol] | 1 to 10 | 1 to 10 | > 10 | > 10 | > 10 | > 10 | 1 to 10 |  |  |  |  |  |  |  |
| Cn1cc2cc(-c3ccc4nn(C5CCNCC5)cc4n3)c(O)c(F)c2n1 [Compound 107, 7-fluoro-2-methyl-5-[2-(4-piperidyl)pyrazolo [4,3-b]pyridin-5-yl]indazol-6-ol] | 0.1 to 1 | 0.1 to 1 | 0.1 to 1 | 0.1 to 1 | 0.1 to 1 | 0.1 to 1 | < 0.1 |  |  |  |  |  |  |  |
